Test results reported in patent US10285989B2, “Pyrimidinone amide compounds as PDE2 inhibitors” (Merck Sharp & Dohme Corp., priority 2015, dated 2019).
Read-outs that look alike come from different tables or passages of the source.

Experiments:
Rhesus PDE2A3 = Rhesus PDE2A3 (Macaca mulatta, UniProt B3VTJ2); experiment: PDE2 fluorescence polarization (IMAP FP) inhibition assay, rhesus PDE2A3; type: biochemical, rhesus macaque
Experimental: A Labcyte Echo 555 (Labcyte, Sunnyvale, Calif.) is used to dispense 200 nL from each well of the titration plate to the 384 well assay plate. Ten microliters of a solution of enzyme (1/2000 final dilution from aliquots; sufficient to produce 20% substrate conversion) was added to the assay plate. Next 10 uL of a separate solution of the substrate FAM-labeled cAMP (50 nM final concentration product # R^7506 from Molecular Devices) and the activator cGMP (1 uM final concentration), prepared in the assay buffer (10 mM Tris HCl, pH 7.2, 10 mM MgCl2, 0.05% NaN3 0.01% Tween-20, and 1 mM DTT) was added to the assay plate and shaken to mix. The reaction is allowed to proceed at room temperature for 60 minutes. A binding solution is then made from the kit components, comprised of 80% Solution A, 20% Solution B and binding reagent at a volume of 1/600 the total binding solution. The enzymatic reaction is stopped by addition of 60 μL of the binding solution to each well of the assay plates and the plates are sealed and shaken for 30 seconds. The plate was incubated at room temperature for at least one hour prior to determining the fluorescence polarization (FP). The parallel and perpendicular fluorescence of each well of the plate was measured using a Tecan Genios Pro plate reader (Tecan, Switzerland) or Perkin Elmer EnVision™ plate reader (Waltham, Mass.). Fluorescence polarization (mP) was calculated from the parallel (S) and perpendicular (P) fluorescence of each sample well and the analogous values for the median control well, containing only substrate (So and Po), using the following equation: Polarization (mP)=1000*(S/So−P/Po)/(S/So+P/Po).
Dose-inhibition profiles for each compound were characterized by fitting the mP data to a four-parameter equation given below.
An apparent (KM) for FAM-labeled cAMP of ˜10 uM was used.

human PDE2A1 = human PDE2A1 (Homo sapiens (Human), UniProt O00408); experiment: PDE2 IMAP FP inhibition assay, human PDE2A1 (selectivity panel format); type: biochemical
human PDE2A1, sequence (O00408 other isoform, or with tags, fused parts or gaps): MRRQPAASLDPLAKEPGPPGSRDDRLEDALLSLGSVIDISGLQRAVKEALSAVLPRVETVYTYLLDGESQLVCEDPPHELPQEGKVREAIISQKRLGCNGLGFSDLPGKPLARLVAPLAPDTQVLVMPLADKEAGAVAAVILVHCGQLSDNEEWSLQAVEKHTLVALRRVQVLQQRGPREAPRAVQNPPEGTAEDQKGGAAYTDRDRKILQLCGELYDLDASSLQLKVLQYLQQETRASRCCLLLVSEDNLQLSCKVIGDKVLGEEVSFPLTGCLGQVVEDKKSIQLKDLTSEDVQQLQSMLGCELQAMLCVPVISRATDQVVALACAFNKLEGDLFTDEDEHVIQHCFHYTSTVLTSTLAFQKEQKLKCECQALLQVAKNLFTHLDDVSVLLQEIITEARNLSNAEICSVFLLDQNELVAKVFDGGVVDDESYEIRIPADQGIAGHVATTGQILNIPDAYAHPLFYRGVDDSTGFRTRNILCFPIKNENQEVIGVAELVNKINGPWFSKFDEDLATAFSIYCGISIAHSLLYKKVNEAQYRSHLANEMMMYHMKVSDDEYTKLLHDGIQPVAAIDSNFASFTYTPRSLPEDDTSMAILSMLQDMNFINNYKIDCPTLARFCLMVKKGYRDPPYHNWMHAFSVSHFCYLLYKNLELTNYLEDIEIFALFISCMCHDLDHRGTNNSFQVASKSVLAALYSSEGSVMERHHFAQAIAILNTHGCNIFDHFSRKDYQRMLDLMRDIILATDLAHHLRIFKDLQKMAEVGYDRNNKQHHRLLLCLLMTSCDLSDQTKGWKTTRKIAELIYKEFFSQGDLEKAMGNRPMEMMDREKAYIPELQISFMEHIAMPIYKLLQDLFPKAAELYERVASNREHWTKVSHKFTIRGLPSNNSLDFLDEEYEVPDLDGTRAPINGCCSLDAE
Experimental: Selectivity for PDE2, as compared to other PDE families, was assessed using the IMAP® technology. Human PDE10A2 enzyme was prepared from cytosolic fractions of transiently transfected HEK cells.
A Labcyte POD 810 (Labcyte, Sunnyvale, Calif.) was used to dispense 200 nL from each well of the titration plate to make eleven copies of the assay plate for each titration, one copy for each PDE enzyme. A solution of each enzyme (dilution from aliquots, sufficient to produce 20% substrate conversion) and a separate solution of FAM-labeled cAMP or FAM-labeled cGMP from Molecular Devices (Sunnyvale, Calif., product # R7506 or cGMP#R7508), at a final concentration of 50 nM were made in the assay buffer (10 mM Tris HCl, pH 7.2, 10 mM MgCl2, 0.05% NaN3 0.01% Tween-20, and 1 mM DTT). Note that the substrate for PDE2 is 50 nM FAM cAMP containing 1000 nM of cGMP. The enzyme and the substrate were then added to the assay plates in two consecutive additions of 10 μL and then shaken to mix. The reaction was allowed to proceed at room temperature for 60 minutes. A binding solution was then made from the kit components, comprised of 80% Solution A, 20% Solution B and binding reagent at a volume of 1/600 the total binding solution. The enzymatic reaction was stopped by addition of 60 μL of the binding solution to each well of the assay plate. The plates were sealed and shaken for 10 seconds. The plates were incubated at room temperature for one hour, then the parallel and perpendicular fluorescence was measured using a Tecan Genios Pro plate reader (Tecan, Switzerland). […] The intrinsic PDE2 inhibitory activity of a compound which may be used in accordance with the present invention may be determined by these assays. […]

[1] = Lab B, read-out: Rhesus PDE2 Ki (nM) - Lab B
[2] = Lab B, read-out: Human PDE2 Ki (nM) - Lab B
[3] = Lab A, read-out: Rhesus PDE2 Ki (nM) - Lab A
[4] = Lab A, read-out: Human PDE2 Ki (nM) - Lab A

Rhesus PDE2A3, sequence (B3VTJ2 1-941): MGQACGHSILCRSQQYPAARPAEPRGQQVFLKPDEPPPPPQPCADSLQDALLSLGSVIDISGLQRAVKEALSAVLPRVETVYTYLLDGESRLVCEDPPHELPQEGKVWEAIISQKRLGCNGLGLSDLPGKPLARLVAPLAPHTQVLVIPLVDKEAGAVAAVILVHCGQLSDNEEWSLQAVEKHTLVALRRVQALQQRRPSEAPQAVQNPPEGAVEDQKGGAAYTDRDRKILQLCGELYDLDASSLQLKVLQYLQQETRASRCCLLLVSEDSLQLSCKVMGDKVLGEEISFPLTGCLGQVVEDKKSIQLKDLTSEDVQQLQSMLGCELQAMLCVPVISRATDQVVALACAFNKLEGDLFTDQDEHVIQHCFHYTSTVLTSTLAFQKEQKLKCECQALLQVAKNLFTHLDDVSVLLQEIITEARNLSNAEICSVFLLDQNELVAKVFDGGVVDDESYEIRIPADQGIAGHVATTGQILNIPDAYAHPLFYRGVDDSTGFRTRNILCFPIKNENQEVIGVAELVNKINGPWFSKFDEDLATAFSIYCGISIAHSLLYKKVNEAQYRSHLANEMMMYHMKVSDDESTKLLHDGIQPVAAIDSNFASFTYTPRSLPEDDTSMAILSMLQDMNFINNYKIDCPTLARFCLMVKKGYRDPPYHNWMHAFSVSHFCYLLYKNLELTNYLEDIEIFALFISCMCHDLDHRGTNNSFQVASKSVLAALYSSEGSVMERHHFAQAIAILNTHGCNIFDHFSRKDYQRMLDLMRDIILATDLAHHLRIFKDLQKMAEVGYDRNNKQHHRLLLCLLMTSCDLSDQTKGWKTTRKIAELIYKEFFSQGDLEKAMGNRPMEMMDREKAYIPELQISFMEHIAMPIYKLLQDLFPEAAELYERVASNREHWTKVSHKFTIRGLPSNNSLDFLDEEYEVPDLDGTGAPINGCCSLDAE

Row | Ki (Rhesus PDE2A3; [3]) [nM] | Compound | further results
1 | 86000 | CNCCCOc1nc(C(=O)NC(C)c2ccc(C(F)(F)F)cc2)cc(=O)[nH]1 (stereo not shown) [Example 180, 2-[3-(methylamino)propoxy]-6-oxo-N-{1-[4-(trifluoromethyl)phenyl]ethyl}-1,6-dihydro-pyrimidine-4-carboxamide] | –
2 | > 100000 | CC(NC(=O)c1cc(=O)[nH]c(OC2CCN(C)C2)n1)c1ccc(C(F)(F)F)cc1 (stereo not shown) [Example 181, 2-[(1-methylpyrrolidin-3-yl)oxy]-6-oxo-N-{1-[4-(trifluoromethyl)phenyl]ethyl}-1,6-dihydro pyrimidine-4-carboxamide] | –
3 | 55000 | CC(NC(=O)c1cc(=O)[nH]c(OC2CCCN(C)C2)n1)c1ccc(C(F)(F)F)cc1 (stereo not shown) [Example 182, 2-[(1-methylpiperidin-3-yl)oxy]-6-oxo-N-{1-[4-(trifluoromethyl)phenyl]ethyl}-1,6-dihydro pyrimidine-4-carboxamide] | –
4 | 72000 | CC(NC(=O)c1cc(=O)[nH]c(OCCN(C)C)n1)c1ccc(C(F)(F)F)cc1 (stereo not shown) [Example 184, 2-[2-(dimethylamino)ethoxy]-6-oxo-N-{1-[4-(trifluoromethyl)phenyl]ethyl}-1,6-dihydro-pyrimidine-4-carboxamide] | –
5 | > 100000 | CC(NC(=O)c1cc(=O)[nH]c(OC2CCNC2)n1)c1ccc(C(F)(F)F)cc1 (stereo not shown) [Example 185, 6-oxo-2-(pyrrolidin-3-yloxy)-N-{1-[4-(trifluoromethyl)phenyl]ethyl}-1,6-dihydropyrimidine-4-carboxamide] | –
6 | > 100000 | CC(NC(=O)c1cc(=O)[nH]c(OC2CCNCC2)n1)c1ccc(C(F)(F)F)cc1 (stereo not shown) [Example 187, 6-oxo-2-(piperidin-4-yloxy)-N-{1-[4-(trifluoromethyl)phenyl]ethyl}-1,6-dihydropyrimidine-4-carboxamide] | –
7 | 12600 | CC(NC(=O)c1cc(=O)[nH]c(OCC2(C)COC2)n1)c1ccc(C(F)(F)F)cc1 (stereo not shown) [Example 188, 2-[(3-methyloxetan-3-yl)methoxy]-6-oxo-N-{1-[4-(trifluoromethyl)phenyl]ethyl}-1,6-dihydropyrimidine-4-carboxamide] | –
8 | 9310 | CNCCOc1nc(C(=O)NC(C)c2ccc(C(F)(F)F)cc2)cc(=O)[nH]1 (stereo not shown) [Example 189, 2-[2-(methylamino)ethoxy]-6-oxo-N-{1-[4-(trifluoromethyl)phenyl]ethyl}-1,6-dihydropyrimidine-4-carboxamide] | –
9 | > 100000 | CC(NC(=O)c1cc(=O)[nH]c(OC2CCN(C)CC2)n1)c1ccc(C(F)(F)F)cc1 (stereo not shown) [Example 190, 2-[(1-methylpiperidin-4-yl)oxy]-6-oxo-N-{1-[4-(trifluoromethyl)phenyl]ethyl}-1,6-dihydro-pyrimidine-4-carboxamide] | –
10 | > 100000 | CC(NC(=O)c1cc(=O)[nH]c(OC2CCCNC2)n1)c1ccc(C(F)(F)F)cc1 (stereo not shown) [Example 191, 6-oxo-2-(piperidin-3-yloxy)-N-{1-[4-(trifluoromethyl)phenyl]ethyl}-1,6-dihydropyrimidine-4-carboxamide] | –
11 | 11500 | CC(NC(=O)c1cc(=O)[nH]c(OC2COC2)n1)c1ccc(C(F)(F)F)cc1 (stereo not shown) [Example 192, 2-(oxetan-3-yloxy)-6-oxo-N-{1-[4-(trifluoromethyl)phenyl]ethyl}-1,6-dihydropyrimidine-4-carboxamide] | –
12 | 1060 | CC(NC(=O)c1cc(=O)[nH]c(OC2CCOC2)n1)c1ccc(C(F)(F)F)cc1 (stereo not shown) [Example 193, 6-oxo-2-(tetrahydrofuran-3-yloxy)-N-{1-[4-(trifluoromethyl)phenyl]ethyl}-1,6-dihydropyrimidine-4-carboxamide] | –

Second part, the molecule before the results:

Row | Compound | Ki (Rhesus PDE2A3; [3]) [nM] | further results
13 | CN(C)c1nc(C(=O)NC(c2ccc(C3(C)CC3)c(F)c2)C(C)(C)C)cc(=O)[nH]1 (single isomer, unassigned) [Example 124, (R)- or (S)-2-(dimethylamino)-N-{1-[3-fluoro-4-(1-methylcyclopropyl)phenyl]-2,2-dimethylpropyl}-6-oxo-1,6-dihydropyrimidine-4-carboxamide] | – | Ki (Rhesus PDE2A3; [1]): 0.45 nM; Ki (human PDE2A1; [2]): 0.34 nM
14 | C[C@@H](NC(=O)c1cc(=O)[nH]c(N(C)C)n1)c1ccc(OC(F)(F)F)c(Cl)c1 [Example 3, (R)—N-(1-(3-chloro-4-(trifluoromethoxy)phenyl)ethyl)-2-(dimethylamino)-6-oxo-1,6-dihydropyrimidine-4-carboxamide] | 0.82 | Ki (Rhesus PDE2A3; [1]): 1.5 nM; Ki (human PDE2A1; [2]): 1.6 nM
15 | C[C@@H](NC(=O)c1cc(=O)[nH]c(N2CC[C@@H](F)C2)n1)c1ccc(C(F)(F)F)cc1 [Example 11, 2-((R)-3-fluoropyrrolidin-1-yl)-6-oxo-N—((R)-1-(4-(trifluoromethyl)phenyl)ethyl)-1,6-dihydropyrimidine-4-carboxamide] | 30 | Ki (human PDE2A1; [4]): 18 nM
16 | COCC1CCN(c2nc(C(=O)N[C@@H](c3ccc(C(F)(F)F)cc3)C(C)(C)C)cc(=O)[nH]2)C1 (stereo partly drawn) [Example 14, N—((R)-2,2-dimethyl-1-(4-(trifluoromethyl)phen)propyl)-2-(3-(methoxymethyl)pyrrolidin-1-yl)-6-oxo-1,6-dihydropyrimidine-4-carboxamide] | – | Ki (Rhesus PDE2A3; Rhesus PDE2 Ki (nM) - Lab B, Lab B): 0.41 nM; Ki (human PDE2A1; [2]): 0.34 nM
17 | CSc1nc(C(=O)N[C@H](C)c2ccc(C(F)(F)F)cc2)cc(=O)[nH]1 [Example 15, (R)-2-(methylthio)-6-oxo-N-(1-(4-(trifluoromethyl)phenyl)ethyl)-1,6-dihydropyrimidine-4-carboxamide] | 46 | Ki (human PDE2A1; [4]): 31 nM
18 | COc1nc(C(=O)N[C@H](C)c2ccc(C(F)(F)F)cc2)cc(=O)[nH]1 [Example 17, (R)-2-methoxy-6-oxo-N-(1-(4-(trifluoromethyl)phenyl)ethyl)-1,6-dihydropyrimidine-4-carboxamide] | 130 | Ki (human PDE2A1; [4]): 115 nM
19 | CCOc1nc(C(=O)N[C@H](C)c2ccc(C(F)(F)F)cc2)cc(=O)[nH]1 [Example 18, (R)-2-ethoxy-6-oxo-N-(1-(4-(trifluoromethyl)phenyl)ethyl)-1,6-dihydropyrimidine-4-carboxamide] | 63 | Ki (human PDE2A1; [4]): 72 nM
20 | C[C@@H](NC(=O)c1cc(=O)[nH]c(Oc2ccccc2)n1)c1ccc(C(F)(F)F)cc1 [Example 19, (R)-6-oxo-2-phenoxy-N-(1-(4-(trifluoromethyl)phenyl)ethyl)-1,6-dihydropyrimidine-4-carboxamide] | 2930 | –
21 | COCCOc1nc(C(=O)NC(C)c2ccc(C(F)(F)F)cc2)cc(=O)[nH]1 (stereo not shown) [Example 21, 2-(2-Methoxyethoxy)-6-oxo-N-(1-(4-(trifluoromethyl)phenyl)ethyl)-1,6-dihydropyrimidine-4-carboxamide] | 657 | –
22 | COc1ccc(Oc2nc(C(=O)N[C@H](C)c3ccc(C(F)(F)F)cc3)cc(=O)[nH]2)cc1OC [Example 22, (R)-2-(3,4-dimethoxyphenoxy)-6-oxo-N-(1-(4-(trifluoromethyl)phenyl)ethyl)-1,6-dihydropyrimidine-4-carboxamide] | 727 | Ki (human PDE2A1; [4]): 988 nM
23 | C[C@@H](NC(=O)c1cc(=O)[nH]c(N2CC(F)(F)C2)n1)c1ccc(C(F)(F)F)cc1 [Example 24, 2-(3,3-Difluoroazetidin-1-yl)-6-oxo-N-{(1R)-1-[4-(trifluoromethyl)phenyl]ethyl}-1,6-dihydropyrimidine-4-carboxamide] | 79 | Ki (human PDE2A1; [4]): 40 nM
24 | COC(C)(C)CCOc1nc(C(=O)NC(C)c2ccc(C(F)(F)F)cc2)cc(=O)[nH]1 (stereo not shown) [Example 186, 2-(3-methoxy-3-methylbutoxy)-6-oxo-N-{1-[4-(trifluoromethyl)phenyl]ethyl}-1,6-dihydro pyrimidine-4-carboxamide] | 352 | –
